Assay results as given in US8779195B2, “Polyamine derivatives” (Nihon University, priority 2006, dated 2014).
Where a name gives a salt, the structure may show the parent alone. Read-outs that look alike come from different tables or passages of the source.

Experiments:
NMDA receptor NR1/NR2A = NMDA receptor NR1/NR2A (Rattus norvegicus, UniProt P35439+Q00959); assay: two-electrode voltage clamp, NMDA receptor activity inhibition in Xenopus oocytes (NR1/NR2A); format: cell-based
Protocol: (§1) To confirm pharmacological function of TsPD, TsPDG, TsSPMG, BsPDG, and Tosyl-SPM synthesized above (synthesized by the method described in Patent Document 1 mentioned above), the effect of these compounds on NMDA receptor was measured by a two-electrode voltage clamp method.
(§2) This method can be carried out in accordance with the method of Masuko et al. (Masuko T. et al., Mol. Pharmacol. 55: 957-969 (1999); Masuko T. et al., Nuerosci. Lett. 371: 30-33 (2004); Masuko T. et al., Chem. Pharm. Bull. 53 (4) 444-447 (2005)). To the oocyte, cRNAs of an NR1 subunit and an NR2 subunit of NMDA receptor were injected in a ratio of 1:5 (NR1: 0.1 to 4 ng, NR2: 0.5 to 20 ng) to obtain the oocyte in which NMDA receptor was expressed.
(§3) The oocytes were cultured in a medium (96 mM NaCl, 2 mM KCl, 1 mM MgCl2, 1.8 mM CaCl2, 5 mM Na-HEPES, 2.5 mM sodium pyruvate, 50 μg/ml gentamicin, pH=7.5) at 19° C. for 1 to 3 days.
(§4) At the measurement date, K^+-BAPTA was injected in the oocytes and then, the activity of the receptors was measured by the two-electrode voltage clamp method (described later) using a recording buffer (96 mM NaCl, 2 mM KCl, 1.8 mM BaCl2, 10 mM Na-HEPES, pH=7.5).
(§5) Note that there is a single type of gene in NR1 and 4 types of genes, namely NR2A to NR2D, in NR2. There are NR1/NR2A, NR1/NR2B, NR1/NR2C and NR1/NR2D subtypes in NMDA receptor. However, NR1/NR2A and NR1/NR2B subtypes are conceivably present widely in the brain. Therefore, the activity inhibitory effects on these two types were measured in the following experiments.
(§6) The two-electrode voltage clamp method was carried out in accordance with the method of Williams et al. (Williams, K. et al., Mol. Pharmacol 38: 85-108). The current flowing through the entire membrane of the oocyte was measured by an amplifier CEZ-1250 (Nihon Kohden Corporation) for the two-electrode voltage clamp method. The electrode was filled with 3M potassium chloride and the resistance was set at 0.4 to 4 MΩ. In measurement, glutamate and glycine were added as NMDA agonists.
(§7) To the oocytes obtained by the aforementioned method, various concentrations of TsPD, TsPDG, TsSPMG, BsPDG and Tosyl-SPM were added. The activity inhibitory effect on […] subtypes was measured at a fixed voltage (Vh) of −70 mV (resting membrane potential).
(§8) As a comparative example, the same measurement is performed by use of Dansyl-SPM represented by the aforementioned formula (III).
(§9) Values obtained from 4 to 5 oocytes were averaged. The average value±S.E.M. was regarded as a measurement value.

NMDA receptor NR1/NR2B = NMDA receptor NR1/NR2B (Rattus norvegicus, UniProt P35439+Q00960); assay: two-electrode voltage clamp, NMDA receptor activity inhibition in Xenopus oocytes (NR1/NR2B); format: cell-based
Sequence of NMDA receptor NR1/NR2B (Q00960 27-1482, other chains not shown): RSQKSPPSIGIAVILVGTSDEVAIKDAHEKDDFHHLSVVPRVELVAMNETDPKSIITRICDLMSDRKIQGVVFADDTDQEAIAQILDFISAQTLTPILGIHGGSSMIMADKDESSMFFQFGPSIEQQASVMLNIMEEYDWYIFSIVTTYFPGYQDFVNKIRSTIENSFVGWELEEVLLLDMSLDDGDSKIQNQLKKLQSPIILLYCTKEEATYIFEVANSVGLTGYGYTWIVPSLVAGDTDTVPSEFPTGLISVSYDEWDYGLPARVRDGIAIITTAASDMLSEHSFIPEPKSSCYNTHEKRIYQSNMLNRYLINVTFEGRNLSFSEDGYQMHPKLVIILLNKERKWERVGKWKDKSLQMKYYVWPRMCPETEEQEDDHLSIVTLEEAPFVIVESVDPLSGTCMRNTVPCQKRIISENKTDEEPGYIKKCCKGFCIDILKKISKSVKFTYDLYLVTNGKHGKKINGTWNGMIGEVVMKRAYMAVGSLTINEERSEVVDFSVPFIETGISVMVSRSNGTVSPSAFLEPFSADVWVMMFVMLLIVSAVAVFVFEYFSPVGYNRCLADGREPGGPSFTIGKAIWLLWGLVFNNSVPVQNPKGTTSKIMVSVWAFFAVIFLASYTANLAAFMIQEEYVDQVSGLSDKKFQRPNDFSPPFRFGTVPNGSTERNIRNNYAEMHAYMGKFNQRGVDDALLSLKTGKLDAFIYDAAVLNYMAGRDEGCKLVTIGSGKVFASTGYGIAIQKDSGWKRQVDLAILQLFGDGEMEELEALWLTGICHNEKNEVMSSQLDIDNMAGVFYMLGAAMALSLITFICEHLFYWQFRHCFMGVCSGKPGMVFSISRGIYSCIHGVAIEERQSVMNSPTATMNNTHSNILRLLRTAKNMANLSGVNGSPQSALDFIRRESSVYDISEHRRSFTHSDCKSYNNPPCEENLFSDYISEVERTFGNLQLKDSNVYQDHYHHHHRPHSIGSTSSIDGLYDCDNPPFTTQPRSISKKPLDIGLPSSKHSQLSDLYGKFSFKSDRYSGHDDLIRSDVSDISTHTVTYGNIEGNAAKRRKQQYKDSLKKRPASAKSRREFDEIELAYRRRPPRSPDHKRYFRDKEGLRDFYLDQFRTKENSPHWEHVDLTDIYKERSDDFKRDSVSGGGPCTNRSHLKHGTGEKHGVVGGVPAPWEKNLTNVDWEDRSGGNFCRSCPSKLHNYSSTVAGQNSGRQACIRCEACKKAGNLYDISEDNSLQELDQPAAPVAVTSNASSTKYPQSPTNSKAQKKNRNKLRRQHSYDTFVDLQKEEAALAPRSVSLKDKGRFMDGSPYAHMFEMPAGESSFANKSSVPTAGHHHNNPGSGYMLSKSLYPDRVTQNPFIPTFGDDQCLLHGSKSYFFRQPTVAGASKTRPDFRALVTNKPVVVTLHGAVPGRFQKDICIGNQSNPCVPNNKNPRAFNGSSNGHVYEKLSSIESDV
Protocol: as §1, §2, §3, §4, §5, §6, §7, §8, §9

[1] = cytotoxicity test, Alamar blue assay; format: cell-based; details: human, 24 hours exposure, read-out: IC50 (concentration at which respiratory activity is 50%)
Protocol: A cytotoxicity test was carried out with respect to TsPD, TsPDG, TsSPMG, BsPDG and Tosyl-SPM. Also in this test, Dansyl-SPM was used in a comparative example.
SH-SY5Y neuroblastoma cell line was purchased from the American Type Culture Collection. The cells were cultured in a D-MEM medium to which penicillin (100 U/ml), streptomycin (100 U/ml) and inactivated fetal bovine serum (Gibco) were added. The cells were maintained in a CO2 incubator at 37° C. and kept under the condition of 95% air and 5% CO2.
Undifferentiated SH-SY5Y cells were exposed to various concentrations of polyamine derivatives for 24 hours. An Alamar blue stock solution was transferred to a 96 well plate. The final assay volume was set at 100 μl/well and the final concentration of the Alamar blue was set at 10%. Six hours later, reduced Alamar blue was measured at a wavelength of 570 nm (FIG. 3). A survival rate (%) of the cells exposed to a polyamine derivative for 24 hours was expressed by a relative value of respiratory activity of the cells based on respiratory activity (100%) of mitochondria of the cells to which no drug is added.

[2] = test system: Rat hippocampal primary culture cells; assay: protective effect against nerve cell death induced by glutamate (lactate dehydrogenase release); format: cell-based; details: glutamate exposure one hour, LDH release after 24 hours
Protocol: (§10) Next, the protective effect of polyamine derivatives against nerve cell death due to excitotoxicity was investigated. Rat hippocampal primary culture cells were cultured for seven days and exposed to glutamate or NMDA for one hour. Nerve cell death induced in this manner was evaluated based on lactate dehydrogenase release after 24 hours as an index, significant cell death was observed. In addition, it was observed that nerve cell death caused by glutamate and NMDA exposure has concentration dependency.

[3] = test system: Rat hippocampal primary culture cells; assay: protective effect against nerve cell death induced by NMDA (lactate dehydrogenase release); format: cell-based; details: NMDA exposure one hour, LDH release after 24 hours
Protocol: as §10

[4] = test system: mouse convulsion induced by NMDA; assay: suppression of NMDA-induced convulsion in mouse (permeability through the blood brain barrier); format: in vivo
Protocol: Polyamine derivatives according to the present invention were evaluated for permeability through the blood brain barrier.
When 100 mg/kg NMDA was injected into a mouse abdominal cavity, convulsion is induced several minutes later. Then, the convulsion suppression effect of a polyamine derivative on mouse convulsion induced by NMDA was investigated.
When 0.5 mg/kg TsPDG and BsPDG were intravenously administered into a mouse 30 minutes before NMDA injection, the time of convulsion induced by NMDA was reduced by 43% and 39%. This reduction rate of convulsion time was equivalent to that (38%) when 10 mg/kg memantine intravenously administered.

NMDA receptor = details: read-out: IC50 of memantine (NMDA receptor); cited from earlier work
[5] = Xenopus oocytes, Vh -70 mV, glutamate and glycine as agonists, mean ± S.E.M. of 4 to 5 oocytes, read-out: IC50 NR1/NR2A
[6] = Xenopus oocytes, Vh -70 mV, glutamate and glycine as agonists, mean ± S.E.M. of 4 to 5 oocytes, read-out: IC50 NR1/NR2B
[7] = 0.5 mg/kg intravenously 30 minutes before 100 mg/kg NMDA i.p.
[8] = undifferentiated SH-SY5Y neuroblastoma cells

Sequence of NMDA receptor NR1/NR2A (Q00959 23-1464, other chains not shown): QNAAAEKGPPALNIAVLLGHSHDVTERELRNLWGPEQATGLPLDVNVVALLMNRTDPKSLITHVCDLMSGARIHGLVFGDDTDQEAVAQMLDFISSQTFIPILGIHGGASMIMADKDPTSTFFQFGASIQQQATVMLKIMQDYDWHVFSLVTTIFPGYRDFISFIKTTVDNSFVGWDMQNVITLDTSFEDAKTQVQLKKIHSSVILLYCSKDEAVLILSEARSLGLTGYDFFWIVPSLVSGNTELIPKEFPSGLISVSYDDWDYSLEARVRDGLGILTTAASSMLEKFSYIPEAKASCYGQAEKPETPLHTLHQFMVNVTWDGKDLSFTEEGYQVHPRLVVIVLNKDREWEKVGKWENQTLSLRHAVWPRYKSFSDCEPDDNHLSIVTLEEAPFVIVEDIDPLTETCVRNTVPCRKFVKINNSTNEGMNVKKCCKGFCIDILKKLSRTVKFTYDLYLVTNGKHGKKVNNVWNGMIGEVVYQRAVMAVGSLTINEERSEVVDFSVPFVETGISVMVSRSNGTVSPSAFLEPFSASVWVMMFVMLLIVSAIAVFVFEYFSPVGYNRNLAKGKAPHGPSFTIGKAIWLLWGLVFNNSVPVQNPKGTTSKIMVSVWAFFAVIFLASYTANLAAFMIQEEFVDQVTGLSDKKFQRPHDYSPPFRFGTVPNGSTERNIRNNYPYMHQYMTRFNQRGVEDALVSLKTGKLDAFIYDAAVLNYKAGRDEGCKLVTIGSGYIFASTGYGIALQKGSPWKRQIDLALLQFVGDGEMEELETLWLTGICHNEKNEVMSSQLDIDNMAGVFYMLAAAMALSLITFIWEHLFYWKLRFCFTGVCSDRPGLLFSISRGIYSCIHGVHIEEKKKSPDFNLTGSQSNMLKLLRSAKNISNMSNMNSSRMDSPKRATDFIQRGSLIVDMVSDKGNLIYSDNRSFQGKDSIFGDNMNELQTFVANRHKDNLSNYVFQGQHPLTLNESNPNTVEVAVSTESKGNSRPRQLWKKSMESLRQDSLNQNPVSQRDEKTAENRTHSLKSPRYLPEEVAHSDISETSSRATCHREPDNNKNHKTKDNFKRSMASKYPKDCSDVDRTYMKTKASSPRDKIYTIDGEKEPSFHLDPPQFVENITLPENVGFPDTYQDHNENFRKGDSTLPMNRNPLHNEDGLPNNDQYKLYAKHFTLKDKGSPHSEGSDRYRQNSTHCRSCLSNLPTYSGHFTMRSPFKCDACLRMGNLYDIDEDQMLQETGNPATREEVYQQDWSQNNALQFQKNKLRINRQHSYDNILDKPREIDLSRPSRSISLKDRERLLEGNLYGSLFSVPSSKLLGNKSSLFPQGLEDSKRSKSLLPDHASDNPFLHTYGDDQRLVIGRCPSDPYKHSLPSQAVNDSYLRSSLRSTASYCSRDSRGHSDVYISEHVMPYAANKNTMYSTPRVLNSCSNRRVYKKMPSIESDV

Row | SMILES | IC50 (NMDA receptor NR1/NR2A; [5]) [nM] | IC50 (NMDA receptor NR1/NR2B; [6]) [nM] | IC50 at 24 h ([1]; undifferentiated SH-SY5Y cells) [mM] | also measured
1 | CCCCS(=O)(=O)NCCCCNCCCCNCCCCNC(=N)N [BsPDG] | 15 ± 1 | 24 ± 3 | > 3 | suppression of nerve cell death induced by glutamate ([2]; 1 μM compound): significantly suppressed; suppression of nerve cell death induced by NMDA ([3]; 1 μM compound): completely suppressed; reduction of the time of convulsion induced by NMDA [4, 7]: 39%
2 | CN(C)c1cccc2c(S(=O)(=O)NCCCNCCCCNCCCN)cccc12 [Dansyl-SPM, N^1-Dansyl-Spermine, reference compound] | 270 ± 30 | 310 ± 30 | – | IC50 at 24 h [1, 8]: 0.03 ± 0.001 mM
3 | Cc1ccc(S(=O)(=O)NCCCNCCCCNCCCN)cc1 [Tosyl-SPM, N^1-Tosyl-Spermine, reference compound] | 350 ± 10 | 400 ± 10 | – | IC50 at 24 h [1, 8]: 0.336 ± 0.007 mM
4 | Cc1ccc(S(=O)(=O)NCCCCNCCCCNCCCCNC(=N)N)cc1 [TsPDG] | – | – | 2.87 ± 0.066 | IC50 (NMDA receptor NR1/NR2A): 17 ± 2 nM; IC50 (NMDA receptor NR1/NR2B): 27 ± 2 nM; suppression of nerve cell death induced by glutamate ([2]; 1 μM compound): significantly suppressed; suppression of nerve cell death induced by NMDA ([3]; 1 μM compound): completely suppressed; reduction of the time of convulsion induced by NMDA [4, 7]: 43%
5 | Cc1ccc(S(=O)(=O)NCCCCNCCCCNCCCCN)cc1 [TsPD] | 74 ± 3 | 150 ± 1 | 1.83 ± 0.046 | suppression of nerve cell death induced by glutamate ([2]; 10 μM compound): significantly suppressed; suppression of nerve cell death induced by NMDA ([3]; 10 μM compound): completely suppressed
6 | Cc1ccc(S(=O)(=O)NCCCNCCCCNCCCNC(=N)N)cc1 [TsSPMG] | 320 ± 30 | 370 ± 50 | 2.64 ± 0.037 | –
7 | CC12CC3CC(C)(C1)CC(N)(C3)C2 [memantine, memantine hydrochloride, reference compound] | – | – | – | reduction of the time of convulsion induced by NMDA ([4]; 10 mg/kg intravenously): 38%; IC50 (NMDA receptor): 1000 nM
